In PubChem BioAssay (NCI):
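Compound exposure: 48 hours, 5 concentrations, 96-well plates. GI50 = concentration required for 50% inhibition of growth. At the TGI there is no net growth.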

Columns and labels:
Assay in all cases: NCI anticancer screen, dose series, 48 h
RXF 393 renal = test system: RXF 393 renal
SN12C renal = test system: SN12C renal
EKVX NSCLC = test system: EKVX NSCLC
IGROV1 ovarian = test system: IGROV1 ovarian
OVCAR-3 ovarian = test system: OVCAR-3 ovarian
SF-539 CNS = test system: SF-539 CNS
HCT-15 colon = test system: HCT-15 colon
CAKI-1 renal = test system: CAKI-1 renal
NCI-H460 lung = test system: NCI-H460 lung
SF-268 CNS = test system: SF-268 CNS
MOLT-4 leukemia = test system: MOLT-4 leukemia
OVCAR-8 ovarian = test system: OVCAR-8 ovarian
MDA-MB-435 = test system: MDA-MB-435
PC-3 prostate = test system: PC-3 prostate
HCC-2998 colon = test system: HCC-2998 colon
BT-549 breast = test system: BT-549 breast

Compound | TGI (RXF 393 renal) [µM] | TGI (SN12C renal) [µM] | TGI (EKVX NSCLC) [µM] | TGI (IGROV1 ovarian) [µM] | TGI (OVCAR-3 ovarian) [µM] | TGI (SF-539 CNS) [µM] | TGI (HCT-15 colon) [µM] | TGI (CAKI-1 renal) [µM] | TGI (NCI-H460 lung) [µM] | TGI (SF-268 CNS) [µM] | TGI (MOLT-4 leukemia) [µM] | TGI (OVCAR-8 ovarian) [µM] | TGI (MDA-MB-435) [µM] | TGI (PC-3 prostate) [µM] | TGI (HCC-2998 colon) [µM] | TGI (BT-549 breast) [µM] | GI50 (BT-549 breast) [µM] | GI50 (PC-3 prostate) [µM] | GI50 (SF-539 CNS) [µM] | GI50 (OVCAR-8 ovarian) [µM]
C/C=C/C=C/[C@H]1Cc2cc(O)cc(O)c2O1 | > 100 | > 100 | > 100 | > 100 | > 100 | > 100 | > 100 | > 100 | > 100 | > 100 | > 100 | > 100 |  |  |  |  |  |  |  | 
Nc1ncnc2c1ncn2CC(OCP(=O)(O)O)Oc1ccccc1 (centres undefined) | > 100 | > 100 | > 100 |  | > 100 | > 100 | > 100 | > 100 |  | > 100 |  |  | > 100 | > 100 | > 100 |  |  |  |  | 
CC1=NN(C(=O)c2ccc(Cl)cc2)C(=O)/C1=C/c1cccc(O)c1 | > 100 | > 100 | > 100 | > 100 | > 100 | > 100 | > 100 | > 100 | > 100 | > 100 | > 100 | > 100 |  |  | > 100 |  |  |  |  | 
Cc1sc(N=Nc2c(O)[nH]c3ccccc23)nc1-c1ccccc1 | 34.9 | 34.9 | 31.6 | 27.1 | 27.2 | 37.5 | 27.9 | 32.8 | 42.2 | 38.5 | 65.4 | 40.2 | 66.8 |  | 51.1 | 41.5 |  |  |  | 
CNC(Cc1ccccc1)c1cccc(OC)c1O (centres undefined) | > 100 | > 100 | > 100 | > 100 | > 100 |  | > 100 | > 100 | > 100 | > 100 | > 100 | > 100 | > 100 | > 100 |  | > 100 |  |  |  | 
CCN(CC)CC(C)(C)C(=O)/C=C/c1ccc(C)cc1 | 21.6 | 19.8 | 16.9 |  | 21.7 | 26.2 | 14.8 | 29.1 | 19.4 | 22.1 | 39.9 | 31.4 |  |  | 21.6 |  |  |  |  | 
CCCCCCCCCCCCCCCCCC(=O)NCCCNCCCNC(=O)CCCCCCCCCCCCCCCCC |  | > 100 |  | > 100 | > 100 |  | > 100 | > 100 | > 100 | > 100 | > 100 | > 100 |  |  | > 100 |  |  |  |  | 
COc1cc(CNC(=O)CCCCCCCC/C=C/Br)ccc1O | > 10 | > 10 | > 10 | > 10 | > 10 | > 10 | > 10 | > 10 | > 10 | > 10 | > 10 | > 10 | > 10 | > 10 | > 10 |  |  |  |  | 
COC(=O)c1ccccc1CC1Cc2cc3c(cc2C1)CCC3 | 63.6 | > 100 | > 100 | > 100 | > 100 | > 100 | > 100 | > 100 | > 100 | > 100 | 38.8 | > 100 | 84.2 | > 100 | > 100 |  |  |  |  | 
Clc1ccc2c(NCCNc3nc(-c4ccccc4)cc(-c4ccccc4)n3)ccnc2c1 |  |  |  |  |  | 3.35 |  |  |  |  |  | 4.3 |  | 3.44 |  | 3.2 | 1.57 | 1.88 | 1.79 | 2.07
OCCOCCO[P+]1(OCCOCCO)n2c3ccc2C(c2ccccc2)=C2C=CC(=N2)C(c2ccccc2)=c2ccc(n21)=C(c1ccccc1)C1=NC(=C3c2ccccc2)C=C1 |  |  |  |  | 0.158 |  | 3.21 | 3.79 | 0.886 |  | 0.189 | 2.09 |  | 1.2 | 0.321 |  |  |  |  | 
CC(=O)Oc1ccc(-c2cc3ccccc3oc2=O)cc1OC(C)=O |  | > 100 | > 100 |  |  | > 100 | > 100 |  | > 100 | > 100 | > 100 | > 100 | > 100 | > 100 | 59.3 | > 100 |  |  |  | 
C[n+]1c2ccccc2c(NC(CCC(N)=O)C(=O)O)c2ccccc21 (centres undefined) | > 100 | > 100 | > 100 | > 100 | > 100 | > 100 | > 100 |  | > 100 | > 100 | > 100 | > 100 |  |  | > 100 |  |  |  |  | 
Cc1[nH]n(-c2ccccc2)c(=S)c1C(=O)c1ccccc1 | 10.8 | 45.1 | 54.9 | > 100 |  | > 100 | > 100 | > 100 |  | > 100 | 79.4 | > 100 |  |  | 77.1 |  |  |  |  | 
CC(C)CCNC(=O)c1ccc(CNC(=O)/C=C/c2ccc(-c3ccccc3[N+](=O)[O-])o2)cc1 | > 100 | > 100 |  |  | > 100 |  | > 100 | > 100 | > 100 | 63.1 | > 100 | > 100 | > 100 | > 100 | > 100 |  |  |  |  | 
N#Cc1c(N2CCOCC2)ncn(-c2ccccc2)c1=O |  | > 100 | > 100 | > 100 | > 100 | > 100 | > 100 | > 100 | > 100 |  | > 100 | > 100 | > 100 | > 100 | > 100 | > 100 |  |  |  | 
Cc1ccc2c(c1)NC(=O)C(N=[N+]=[N-])(c1ccccc1)C2=O (centres undefined) |  | 48.2 | 95.3 | > 100 | 37.7 | 81.5 | 52.2 | 78.1 | > 100 | > 100 | 71.5 | 58.7 |  |  | > 100 |  |  |  |  | 
CCC12C=CCN3CC[C@]4(C(=C(C(=O)OC)[C@@H]1Nc1ccn(C5OC(COC(C)=O)C(OC(C)=O)C5OC(C)=O)c(=O)n1)Nc1ccccc14)C32 (some centres undefined) | 6.45 | 8.24 | 14.3 | 9.68 | 7.8 | 9.17 | 6.83 | 15.8 | 8.62 | 10.9 | 23.5 | 11 |  |  | 7.73 |  |  |  |  | 
